This is an account of results in PubChem BioAssay (NCI).

The structures appear in SMILES notation. Where “and” joins values, the source holds several entries; their conditions need not be identical. Equal entries are not always repeated.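 Five compound concentrations were applied to cells in 96-well plates for 48 hours; endpoints were derived by simple linear interpolation of the resulting dose-response curve. The concentration for 50% growth inhibition is given as GI50. The concentration for full growth arrest is given as TGI.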

The subject of one assay is SNB-78 CNS. The experiment in a line: growth of human tumour cells (NCI), 48 h.
In turn, `C1CSCCSCCCS[C@@H]2CCCCC2SC1` (some centres undefined) registered a TGI greater than 100 µM.

Another assay concerns DMS 114 small cell lung. Nature of the assay: growth of human tumour cells (NCI), 48 h.
`C1CSCCSCCCS[C@@H]2CCCCC2SC1` (some centres undefined) had a TGI of 65.4 µM.

The subject of another assay is KM20L2 colon. Nature of the assay: growth of human tumour cells (NCI), 48 h.
Take `C1CSCCSCCCS[C@@H]2CCCCC2SC1` (some centres undefined): the TGI was greater than 100 µM.

In a further assay the test system is SNB-75 CNS. The experiment in a line: growth of human tumour cells (NCI), 48 h.
For the compound `C1CSCCSCCCS[C@@H]2CCCCC2SC1` (some centres undefined), the TGI was greater than 100 µM.

Take `COC(=O)[C@H](Cc1ccccc1)NC(=O)c1ccc(CNC(=O)/C=C/c2csc(-c3ccccc3)n2)cc1`: the TGI stood at 42 µM.

With `CCN(/C=C1/C(=O)C(c2ccccc2)N(c2ccccc2)C1=O)CC` (centres undefined), the TGI was greater than 10 µM.

In the case of `COC(=O)C1CCC(=O)N1CN(C(C)=O)c1cccc(O)c1` (centres undefined), the TGI is greater than 100 µM.

`COc1ccc(-c2oc3cc(-c4cc5oc(-c6ccc(OC)cc6)c(-c6ccc(OC)cc6)c5cc4OC)c(OC)cc3c2-c2ccc(OC)cc2)cc1` displayed a TGI greater than 100 µM.

On to `CCOC(=O)c1c(NC(=O)c2ccccc2)c(C#N)c2n1CCCCC2`, for which the TGI is greater than 100 µM.

With `O=c1cc(Nc2cccc(O)c2)[nH]c(=O)[nH]1`, the TGI was greater than 100 µM.

For the compound `c1cc(-c2ccc(-c3ccsc3)s2)cs1`, the TGI came out at 76.4 µM.

Compound `O=C(Nn1c(-c2ccccc2)nc2ccccc2c1=O)c1ccc(Cl)cc1` came in with a TGI greater than 100 µM.

As for `CC(=O)c1ccc(N=NN2CCCC2)cc1`, the TGI was greater than 100 µM.

`CSC(=O)/C=C1\SS/C(=C\C(=O)SC)S1`: the TGI was 10.5 µM.

In the case of `NCCOc1cccc(C2(N3CCCCC3)CCCCC2)c1`, the TGI is greater than 100 µM.

As for `CC(N)(CC(O)(C(F)(F)Cl)C(F)(F)Cl)C(=O)O` (centres undefined), the TGI was greater than 10 µM.

For the compound `NC1=NC2(COC(c3ccccc3)(c3ccccc3)c3ccccc3)OC(COC(c3ccccc3)(c3ccccc3)c3ccccc3)C(O)C2O1` (centres undefined), the TGI was found to be 4.47 µM.

`CCCCCCCCCCCCCCCCCCNc1ccn(C2OC(COP(=O)(O)OCC3OC(n4ccc(N)nc4=O)C(O)C3O)C(O)C2O)c(=O)n1` (centres undefined) had a TGI greater than 100 µM.

For `CCOc1cnc(C(O)(c2ccccc2)c2ccccc2)o1`, the TGI was greater than 100 µM.

For `COC(CN(C)C(=S)Nc1cccc2ccccc12)OC`, the TGI is greater than 10 µM.

`CC(=O)c1ccc(Nc2c3c(nc4ccccc24)CCCC3)cc1` yielded a TGI of 22.1 µM.

`CCN1CCC(O)(c2ccc([N+](=O)[O-])cc2)C(C(=O)c2ccc([N+](=O)[O-])cc2)C1` (centres undefined) came in with a TGI greater than 100 µM.

`S=C1Cc2c(-c3ccccc3)cc(-c3cccc(Cl)c3)nc2-c2ccccc2N1` returned a TGI of 5.86 µM.

As for `O=C(CCc1cc(O)cc(O)c1)NCCc1cc(O)cc(OCc2ccccc2)c1`, the TGI was 76.2 µM.

With `N#Cc1c(NC(=O)C(F)(F)F)sc2c3c(=O)c4ccccc4c(=O)c=3oc3ccccc3c12`, the TGI is 39.4 µM.

The compound `O=C1CC(O)c2cscc21` (centres undefined) came in with a TGI greater than 100 µM.

In turn, `COc1ccc(OC)c2sc(N3C(=O)/C(=C/c4cccc(Oc5ccccc5)c4)N=C3c3ccccc3)nc12` displayed a TGI greater than 100 µM.

Consider `C[C@@H](CC(=O)OCc1ccccc1)OC1OC(COC(=O)C(C)(C)C)C(OC(=O)C(C)(C)C)C(OC(=O)C(C)(C)C)C1OC(=O)C(C)(C)C` (some centres undefined), for which the TGI is greater than 100 µM.

Regarding `C=C1CC[C@@H](CCC2CCC3(OC2)O[C@]2(O)CC[C@@]3(C)OC2(C)C)C(C)(C)[C@H]1C/C=C1\CCOC1=O` (some centres undefined), the TGI was greater than 92.4 µM.

In turn, `Cc1nc2c(sc3nc4c(cc32)CCC4)c(=O)o1` came in with a TGI greater than 100 µM.

As to `Cc1ccc(OCC2OC(n3cnc4c(Cl)nc(Nc5cc(Cl)cc(Cl)c5)nc43)CC2Oc2ccc(C)cc2)cc1` (centres undefined), the TGI is greater than 100 µM.

For `O=[N+]([O-])c1cccc2nc3ccccc3c(NCCCCCNc3c4ccccc4nc4cccc([N+](=O)[O-])c34)c12`, the GI50 is 0.041 µM; the TGI was 0.867 µM and 0.827 µM.

Compound `COC(=O)c1c(C)cccc1/C=C1\Cc2ccc(C)c(C)c2C1=O` gave a TGI greater than 100 µM.

`COc1ccccc1C1c2cc3c(cc2OC2(OC)COC(=O)C12)OCO3` (centres undefined) returned a TGI of 43.1 µM.

`COc1ccc(/C(Nc2ccccc2)=C(\CCl)c2ccccc2)cc1OC` showed a TGI greater than 100 µM.

`O=S(=O)(/N=C(\NO)Nc1ccc(Cl)cc1)c1cc(C(F)(F)F)cc(C(F)(F)F)c1` came in with a TGI of 33.1 µM.

In a further assay the test system is DLD-1 colon. Nature of the assay: growth of human tumour cells (NCI), 48 h.
As to `C1CSCCSCCCS[C@@H]2CCCCC2SC1` (some centres undefined), the TGI was greater than 100 µM.

A further assay relates to LXFL 529 NSCLC. The experiment in a line: growth of human tumour cells (NCI), 48 h.
Compound `C1CSCCSCCCS[C@@H]2CCCCC2SC1` (some centres undefined) gave a TGI greater than 100 µM.

For a further assay, the system named is HOP-18 NSCLC. Nature of the assay: growth of human tumour cells (NCI), 48 h.
As to `C1CSCCSCCCS[C@@H]2CCCCC2SC1` (some centres undefined), the TGI is greater than 100 µM.

Another assay deals with MOLT-4 leukemia. Nature of the assay: growth of human tumour cells (NCI), 48 h.
Compound `COC(=O)[C@H](Cc1ccccc1)NC(=O)c1ccc(CNC(=O)/C=C/c2csc(-c3ccccc3)n2)cc1` came in with a TGI of 6.68 µM.

On to `CCN(/C=C1/C(=O)C(c2ccccc2)N(c2ccccc2)C1=O)CC` (centres undefined), for which the TGI was greater than 10 µM.

Regarding `COC(=O)C1CCC(=O)N1CN(C(C)=O)c1cccc(O)c1` (centres undefined), the TGI was greater than 100 µM.

Regarding `COc1ccc(-c2oc3cc(-c4cc5oc(-c6ccc(OC)cc6)c(-c6ccc(OC)cc6)c5cc4OC)c(OC)cc3c2-c2ccc(OC)cc2)cc1`, the TGI is greater than 100 µM.

`CCOC(=O)c1c(NC(=O)c2ccccc2)c(C#N)c2n1CCCCC2` had a TGI greater than 100 µM.

In turn, `O=c1cc(Nc2cccc(O)c2)[nH]c(=O)[nH]1` showed a TGI greater than 100 µM.

For the compound `c1cc(-c2ccc(-c3ccsc3)s2)cs1`, the TGI is greater than 100 µM.

The compound `O=C(Nn1c(-c2ccccc2)nc2ccccc2c1=O)c1ccc(Cl)cc1` came in with a TGI greater than 100 µM.

In turn, `CC(=O)c1ccc(N=NN2CCCC2)cc1` displayed a TGI greater than 100 µM.

Regarding `CSC(=O)/C=C1\SS/C(=C\C(=O)SC)S1`, the TGI is greater than 100 µM.

`NCCOc1cccc(C2(N3CCCCC3)CCCCC2)c1`: the TGI was determined as 48.7 µM.

`CC(N)(CC(O)(C(F)(F)Cl)C(F)(F)Cl)C(=O)O` (centres undefined): the TGI is greater than 10 µM.

Consider `NC1=NC2(COC(c3ccccc3)(c3ccccc3)c3ccccc3)OC(COC(c3ccccc3)(c3ccccc3)c3ccccc3)C(O)C2O1` (centres undefined), for which the TGI was greater than 100 µM.

As for `CCCCCCCCCCCCCCCCCCNc1ccn(C2OC(COP(=O)(O)OCC3OC(n4ccc(N)nc4=O)C(O)C3O)C(O)C2O)c(=O)n1` (centres undefined), the TGI was greater than 70.6 µM.

As for `CCOc1cnc(C(O)(c2ccccc2)c2ccccc2)o1`, the TGI was greater than 100 µM.

Turning to `COC(CN(C)C(=S)Nc1cccc2ccccc12)OC`, the TGI was greater than 10 µM.

`CC(=O)c1ccc(Nc2c3c(nc4ccccc24)CCCC3)cc1`: the TGI was 73.8 µM.

In turn, `CCN1CCC(O)(c2ccc([N+](=O)[O-])cc2)C(C(=O)c2ccc([N+](=O)[O-])cc2)C1` (centres undefined) had a TGI of 58 µM.

The compound `S=C1Cc2c(-c3ccccc3)cc(-c3cccc(Cl)c3)nc2-c2ccccc2N1` registered a TGI greater than 90.2 µM.
